Reference: article PMC10535717, “A Novel Antimicrobial Peptide, Dermaseptin-SS1, with Anti-Proliferative Activity, Isolated from the Skin Secretion of Phyllomedusa tarsius” (Molecules, 2023)
Ends that are not written are not given here.

Columns and labels:
[1] = Log P of the amino acid as quoted in the discussion; source and method not given; cited from earlier work
Description: The predicted information from HeliQuest referred to the design of analogues (Figure 2). The first modification step was designed to increase hydrophobic characteristics and decrease helicity. […] The ...

[2] = tested on: E. coli ATCC BAA 2340; type: cell-based, Escherichia coli; settings: KPC strain, overnight 37 °C, three independent assays; for MIC: NB, 5 × 10^5 CFU/mL, OD 550 nm; for MBC: agar plate
Description: (§1) The anti-planktonic microorganism efficacy of the peptides was investigated via minimal bacterial inhibitory concentration (MIC) and minimal bactericidal concentration (MBC) assays. Eight types of microorganisms, including Gram-positive bacteria, Staphylococcus aureus (ATCC CRM 6538), Methicillin-resistant Staphylococcus aureus (NCTC 12493), and Enterococcus faecium (NCTC 12697), Gram-negative bacteria, Escherichia coli (ATCC CRM 8739, ATCC BAA 2340, ATCC 13846, ATCC BAA 2469, and ATCC BAA 2471), Klebsiella pneumoniae (ATCC 43816), Pseudomonas aeruginosa (ATCC CRM 9027) and Acinetobacter baumannii (ATCC BAA 747) and a yeast, Candida albicans (ATCC CRM 10231) were utilized to test the antimicrobial activity of peptides.
(§2) For the MIC assay, microorganisms were inoculated with peptides in a 96-well plate. Nutrient broth (NB) was applied for MRSA, E. coli, K. pneumoniae, and P. aeruginosa, tryptic soy broth (TSB) was applied for S. aureus, E. faecium, and A. baumannii, and yeast extract peptone dextrose broth (YPD-B) was used for C. albicans. The microorganisms were cultured (bacteria: 37 °C; yeast: 26 °C) overnight at 120 rpm and subcultured to achieve the logarithmic growth stage (5 × 10^5 CFU/mL), as confirmed by viable cell counts. After that, 99 µL of the subculture and 1 µL of the peptide were added to the 96-well plate. The final concentration of peptides ranged from 128 to 1 µmol/L (µM) using a 2-fold dilution. In addition, four other groups were established simultaneously at the commencement of the test: a growth control group, a vehicle control group (Dimethyl Sulphoxide, DMSO), a positive control group utilizing Norfloxacin at a concentration of 2 mg/mL for bacteria, and Amphotericin B. at a concentration of 1 mg/mL for yeast, and a blank control group (sterile NB/TSB/YPD-B). The MIC values were measured after overnight incubation at 37/26 °C. The optical density (OD) values were analysed at 550 nm using a Synergy HT plate reader (BioTek, Washington, USA), and were calculated using the following equation:(1) Cell Viability %=[(As−A0)/(Ag−A0)]×100% where As is the absorbance value of the sample group, A0 is the average of the absorbance values of the blank control, and Ag is the average of the absorbance values of the growth control. For the MBC assay, 10 µL of the inhibited cultures on the 96-well plate were transferred onto a corresponding medium agar plate and incubated overnight at 37/26 °C to measure MBC values. The results were obtained from three independent assays.

[3] = tested on: E. coli ATCC BAA 2469; type: cell-based, Escherichia coli; settings: NDM-1 strain, overnight 37 °C, three independent assays; for MIC: NB, 5 × 10^5 CFU/mL, OD 550 nm; for MBC: agar plate
Description: as §1, §2

[4] = tested on: E. coli NCTC 13846; type: cell-based, Escherichia coli
Description: as §1, §2

[5] = tested on: E. coli ATCC BAA 2471; type: cell-based, Escherichia coli; settings: NDM-1 strain, overnight 37 °C, three independent assays; for MIC: NB, 5 × 10^5 CFU/mL, OD 550 nm; for MBC: agar plate
Description: as §1, §2

[6] = tested on: E. coli ATCC CRM 8739; type: cell-based, Escherichia coli
Description: as §1, §2

[7] = tested on: E. faecalis NCTC 12697; type: cell-based
[8] = tested on: horse erythrocytes; assay: Haemolysis activity; type: cell-based; settings: concentration causing 50% haemolysis; 4% (v/v) horse red blood cells in PBS, peptide 128 to 1 µM, 37 °C 2 h, OD 570 nm, 1% Triton X-100 positive control, three separate assays
Method: To start, fresh defibrinated horse blood (TCS Biosciences Ltd., Buckingham, UK) was washed with PBS solution to obtain a clear supernatant. Then, a 4% (v/v) suspension of red blood cells was made in PBS. After this, 100 µL of the peptide solutions were incubated with 100 µL of the suspension of red blood cells in 2 mL centrifuge tubes at 37 °C for 2 h. The ultimate concentration of peptides ranged from 128 to 1 µM obtained by a 2-fold dilution. Also, two other groups were set simultaneously, including a positive control group of 1% Triton X-100 and a blank control group of phosphate-buffered saline (PBS). After incubation and centrifugation at 900× g for 10 min, a volume of 100 µL of the resulting supernatant from each specimen was carefully transferred to individual wells of the 96-well plate. Subsequently, the OD values were analysed using a Synergy HT plate reader (BioTek, USA) at a wavelength of 570 nm using the following equation:(2) Haemolysis Activity %=[(As−A0)/(Ap−A0)]×100% where As is the absorbance value of the supernatant of the peptide group, A0 is the average absorbance value of the blank control, and Ap is the average absorbance value of the positive control. The data were obtained from three separate assays.

[9] = tested on: MRSA NCTC 12493; type: cell-based, Methicillin-resistant Staphylococcus aureus
Description: as §1, §2

[10] = tested on: A. baumannii ATCC BAA 747; type: cell-based, Acinetobacter baumannii
Description: as §1, §2

[11] = tested on: K. pneumoniae ATCC 43816; type: cell-based, Klebsiella pneumoniae
Description: as §1, §2

[12] = tested on: C. albicans ATCC CRM 10231; type: cell-based, Candida albicans; settings: for MBC / MIC: ATCC CRM 10231
Description: as §1, §2

[13] = tested on: P. aeruginosa ATCC CRM 9027; type: cell-based, Pseudomonas aeruginosa
Description: as §1, §2

[14] = tested on: S. aureus ATCC CRM 6538; type: cell-based, Staphylococcus aureus
Description: as §1, §2

[15] = tested on: Gram-positive bacteria; assay: Geometric mean of MICs and therapeutic index, Gram +; type: cell-based; settings: geometric mean of MICs of Table 3; 256.00 μM used where no activity at 128.00 μM
Description: as §1
(§3) For the MIC assay, microorganisms were inoculated with peptides in a 96-well plate. […] The MIC values were measured after overnight incubation at 37/26 °C. The optical density (OD) values were analysed at 550 nm using a Synergy HT plate reader (BioTek, Washington, USA), and were calculated using the following equation:(1) Cell Viability %=[(As−A0)/(Ag−A0)]×100% where As is the absorbance value of the sample group, A0 is the average of the absorbance values of the blank control, and Ag is the average of the absorbance values of the growth control. […]

[16] = tested on: Gram-negative bacteria; assay: Geometric mean of MICs and therapeutic index, Gram −; type: cell-based; settings: geometric mean of MICs of Table 3; 256.00 μM used where no activity at 128.00 μM
Description: as §1, §3

Molecule: C[C@H](N)C(=O)O [Alanine]
- Log P [1]: 3.54

Molecule: NC(=O)CC[C@H](N)C(=O)O [Glutamine]
- Log P [1]: 3.19

Molecule: NCC(=O)O [Glycine]
- Log P [1]: 3.20

Molecule: CC(C)[C@H](N)C(=O)O [Valine]
- Log P [1]: 4.42

Molecule: N[C@@H](CO)C(=O)O [serine]
- Log P [1]: 2.66

Molecule: ALWKKILKNAGKAVLNEINQIVQ-NH2 [Peptide 14V5K]
- MIC [2]: 2 µM
- MBC [2]: 2 µM
- MIC [3]: 1 µM
- MBC [3]: 2 µM
- MBC [4]: 4 µM
- MIC [4]: 4 µM
- MIC [5]: 1 µM
- MBC [5]: 2 µM
- MBC [6]: 2 µM
- MIC [6]: 2 µM
- MBC [7]: >128 µM
- MIC [7]: >128 µM
- HC50 [8]: 256.00
- MBC [9]: 4 µM
- MIC [9]: 4 µM
- MBC [10]: 8 µM
- MIC [10]: 8 µM
- MBC [11]: 2 µM
- MIC [11]: 2 µM
- MBC [12]: 8 µM
- MIC [12]: 8 µM
- MBC [13]: 8 µM
- MIC [13]: 8 µM
- time to eradicate bacteria: < 10 min
- MBC [14]: 4 µM
- MIC [14]: 4 µM

Molecule: ALWKSILKNAGKAALNEINQIVQ-NH2 [SS1]
- MIC [2]: 4 µM
- MBC [2]: 4 µM
- MIC [3]: 4 µM
- MBC [3]: 4 µM
- MBC [4]: 8 µM
- MIC [4]: 8 µM
- MIC [5]: 8 µM
- MBC [5]: 8 µM
- MBC [6]: 4 µM
- MIC [6]: 2 µM
- MBC [7]: >128 µM
- MIC [7]: >128 µM
- HC50 [8]: 256.00 µM
- MBC [9]: >128 µM
- MIC [9]: >128 µM
- MBC [10]: 16 µM
- MIC [10]: 16 µM
- MBC [11]: 16 µM
- MIC [11]: 16 µM
- MBC [12]: >128 µM
- MIC [12]: >128 µM
- MBC [13]: 32 µM
- MIC [13]: 32 µM
- MBC [14]: 8 µM
- MIC [14]: 8 µM

Molecule: ALWKSILKNAGKAGLNEINQIVQ-NH2 [Peptide 14G]
- MBC [6]: 16 µM
- MIC [6]: 16 µM
- MBC [7]: >128 µM
- MIC [7]: >128 µM
- HC50 [8]: 256.00
- MBC [9]: >128 µM
- MIC [9]: >128 µM
- MBC [10]: >128 µM
- MIC [10]: >128 µM
- MBC [11]: >128 µM
- MIC [11]: >128 µM
- MBC [12]: >128 µM
- MIC [12]: >128 µM
- MBC [13]: > 128 µM
- MIC [13]: 32 µM
- MBC [14]: >128 µM
- MIC [14]: >128 µM

Molecule: ALWKSILKNAGKALNEINQIVQ-NH2 [Peptide L14]
- MBC [6]: 4 µM
- MIC [6]: 4 µM
- MBC [7]: >128 µM
- MIC [7]: >128 µM
- HC50 [8]: 256.00
- MBC [9]: 32 µM
- MIC [9]: 32 µM
- MBC [10]: > 128 µM
- MIC [10]: 32 µM
- MBC [11]: 16 µM
- MIC [11]: 16 µM
- MBC [12]: >128 µM
- MIC [12]: >128 µM
- MBC [13]: > 128 µM
- MIC [13]: 16 µM
- MBC [14]: >128 µM
- MIC [14]: >128 µM

Molecule: ALWKSILKNAGKAVLNEINQIV-NH2 [Peptide 14VL23]
- MBC [6]: 16 µM
- MIC [6]: 8 µM
- MBC [7]: >128 µM
- MIC [7]: >128 µM
- HC50 [8]: 256.00
- MBC [9]: >128 µM
- MIC [9]: >128 µM
- MBC [10]: >128 µM
- MIC [10]: >128 µM
- MBC [11]: 4 µM
- MIC [11]: 4 µM
- MBC [12]: >128 µM
- MIC [12]: >128 µM
- MBC [13]: >128 µM
- MIC [13]: >128 µM
- MBC [14]: >128 µM
- MIC [14]: >128 µM

Molecule: ALWKSILKNAGKAVLNEINQIVQ-NH2 [Peptide 14V]
- MBC [6]: 2 µM
- MIC [6]: 2 µM
- MBC [7]: >128 µM
- MIC [7]: >128 µM
- HC50 [8]: 256.00
- MBC [9]: 8 µM
- MIC [9]: 8 µM
- MBC [10]: 4 µM
- MIC [10]: 4 µM
- MBC [11]: 8 µM
- MIC [11]: 8 µM
- MBC [12]: >128 µM
- MIC [12]: >128 µM
- MBC [13]: > 128 µM
- MIC [13]: 16 µM
- MBC [14]: 4 µM
- MIC [14]: 4 µM

Molecule: ALWKSILKNVGKVLNEINQIVQ-NH2 [Peptide L2V]
- MBC [6]: >128 µM
- MIC [6]: >128 µM
- MBC [7]: >128 µM
- MIC [7]: >128 µM
- HC50 [8]: 256.00
- MBC [9]: 4 µM
- MIC [9]: 4 µM
- MBC [10]: 4 µM
- MIC [10]: 4 µM
- MBC [11]: > 128 µM
- MIC [11]: 8 µM
- MBC [12]: >128 µM
- MIC [12]: >128 µM
- GM Yeast ([12]; geometric mean of MICs of Table 3, 256.00 μM used where no activity at 128.00 μM): 256.00 µM
- GM Gram + [15]: 64.00 µM
- MBC [13]: >128 µM
- MIC [13]: >128 µM
- MBC [14]: >128 µM
- MIC [14]: >128 µM
- GM Gram − [16]: 38.05 µM
